“Also recorded” adds a separate entry of the source.
Key:
[1] = test system: Human primary keratinocytes; test: Extracellular vesicle secretion by cultured keratinocytes, Nanosight analysis of culture supernatant; format: cell-based; conditions: compared with normal KC-EVs / keratinocytes without inhibitors
Protocol: (§1) Human primary keratinocytes were cultured in EpiLife™ medium with or without Y or Y+A supplementation according to the schedule below, and analyzed for extracellular vesicle secretion. 10 μM Y-27632 (Wako) and 0.5 μM A-83-01 (Wako) was used. Collection media was serum-free EpiLife™ medium without inhibitors. Thus, depending on the experiment, or stage of the experiment, human epidermal keratinocytes were cultured in serum free media such as EpiLife™ Medium, without or without small molecule inhibitor(s), namely, 10 μM Y-27632 (Wako) alone, or 10 μM Y-27632 plus 0.5 μM A-83-01 (Wako).

[2] = test system: Human primary keratinocytes; test: Long-term culture of keratinocytes: proliferation, morphology, cell condition; format: cell-based
Protocol: as §1, with “(Wako). [table] Long-term culture of keratinocytes was carried out by adding low molecular weight compounds Y and Y+A.” for “(Wako).”

`CC(N)[C@H]1CC[C@H](C(=O)Nc2ccncc2)CC1` (mixture of isomers) [Y, (+/−)-trans-N-(4-Pyridyl)-4-(1-aminoethyl)-cyclohexanecarboxamide] was tested, and the “amount of EVs secreted” value [1] was “increased; also recorded: larger number”, the cell proliferation ([2]; compared with culturing normal cells without Y, 10 μM Y-27632) was “increased; also recorded: enhanced” and the “cell growth, morphology and cell condition” value ([2]; long-term culture, micrographs) was “good cell growth, and good morphology; also recorded: cell morphology was the best”.
